# Results reported in patent publication US4689340A, “Trihaloimidazole insecticide” (Sumitomo Chemical Company, Limited, priority 1985, dated 1987).
# Like-named read-outs stand apart in the source and are kept apart here.
# How the values were obtained:
# [1] = Acute Oral Toxicity Test to Mice (Test Example 1-1); details: mouse, in vivo; for selectivity ratio: po, mice oral LD50 (a) / German cockroach LD50 (b), read-out: Safety coefficient (a)/(b); for LD50 at 168 h: oral (stomach), corn oil, male ICR mice, 7 days' observation
# Method: 1-1 Acute Oral Toxicity Test to Mice
# (§1) The present compounds and the control were each diluted with corn oil to prescribed concentrations, and the dilute solutions obtained were forcedly administered to the stomach of six-week old male mice of ICR strain weighing 24 to 31 g, to which no food had been given for about 20 hours, at a rate of 0.1 ml/10 g of body weight. […] The number of the dead and alive was examined by seven day's observation to obtain LD50 value (50% lethal dosage) (5 mice per group). 1-2 Insecticidal activity test to German cockroach
# The results of the acute oral toxicity test to mice and insecticidal activity test to German cockroaches on the test compounds are shown in Table 3. It is apparent from the table that the present compounds have the characteristics that the toxicity to the warm-blooded animal is low and the insecticidal activity on the insect pest is high. In order to make this characteristics clearer, the following safety coefficient was obtained from the test results. [formula]
# [2] = tested on: smoky brown cockroach (Periplaneta fuliginosa); test: Topical application insecticidal test on smoky brown cockroach (Test Example 2); format: in vivo; details: Validiblatta fuliginosa, 48 h
# Method: (§2) The present compounds and the control were each diluted with acetone and topically applied to the ventral thorax of the male adults of smoky brown cockroach (Periplaneta fuliginosa) at a rate of 10μg a.i./adult. After application, the adults were bred on bait and water in a polyethylene cup. After two days, the number of the dead and alive was examined to obtain a mortality (5 adults per group; two replications).
# cockroach = test: Insecticidal activity as cockroach-controlling insecticides (general statement); format: in vivo; details: among the listed cockroach-controlling compounds
# [3] = tested on: German cockroach (Blattela germanica); test: Oil spray direct spray knock-down test, strain low susceptible to pyrethroids (Test Example 5); format: in vivo; details: 0.6 ml of 0.1% oil spray
# Description: (§3) […] of the present compound (1), 2 parts of xylene and 97.8 parts of kerosene are mixed to obtain an oil spray.
# (§4) Two groups of five male and five femlae adults per group of German cockroach (Blattela germanica), one group belonging to a susceptible strain and the other belonging to a strain low susceptible to pyrethroids,were liberated in a polyethylene cup of 9 cm in diameter thinly coated with vaseline at the inside surface. After covering the cup with a 16-mesh nylon gauze, the cup was placed on the bottom of a glass cylinder (inside diameter, 10 cm; height, 37 cm). Thereafter 0.6 ml of each of the 0.1% oil sprays of the present compounds and the control, prepared according to Formulation example 1, was directly sprayed onto the adults by means of a spray gun under 0.6 atmospheric pressure from the top of the cylinder. The number of knocked-down insects with the lapse of time was counted to obtain KT50 value (50% knocked-down time) (two replications).
# [4] = tested on: German cockroaches (Blattella germanica); test: Heating fumigant test in (183 cm)^3 Peet Grady's chamber (Test Example 4); format: in vivo, strain low susceptible to pyrethroids; details: for mortality at 10 mg/m3, 10 mg/m3: Blattella germanica, 72 h
# Method: (§5) One hundred mg of each of the present compounds (1) to (7) is dissolved in a proper amount of acetone, and a porous ceramic plate of 4.0 cm×4.0cm×1.2 cm (thick) is impregnated with this solution to obtain the heating fumigant of each compound.
# At the bottom of a (183 cm)^3 Peet Grady's chamber (6.1 m^3) were placed three polyethylene cups (inside diameter, 10 cm; height, 8 cm) coated with butter at the inside surface, and 20 adult German cockroaches (10 males and 10 females) (Blattella germanica), which belong to a strain low susceptible to pyrethroids were liberated in each cup. An electric heater was set at the center of the bottom of the chamber, and each of the porous ceramic plates impregnated with the present compounds and the control according to Formulation example 8 (61 mg/plate: 10 mg/m^3), was placed thereon. The plate was heated to about 200° C. by applying current for 70 minutes. The number of knocked-down insects with the lapse of time was examined to obtain KT50 value (50% knocked-downtime). Eighty minutes after current application was started, the cups containing the test insects were taken out of the chamber, and the test insects were bred on water and bait. After three days, the number of the dead and alive was examined to obtain a mortality.
# [5] = tested on: German cockroach (Blattela germanica); test: Oil spray direct spray knock-down test, susceptible strain (Test Example 5); format: in vivo; details: 0.6 ml of 0.1% oil spray
# Description: as §3, §4
# [6] = tested on: German cockroach (Blattella germanica); test: Insecticidal activity test to German cockroach, topical application (Test Example 1-2); format: in vivo, strain low susceptible to pyrethroids; details: 48 h, read-out: Insecticidal activity on German cockroaches LD50 value (b)
# Method: as §1
# as §2, with “acetone to prescribed concentrations” for “acetone”, “German” for “smoky brown”, “(Blattella germanica) which belong to a strain low susceptible to pyrethroids,” for “(Periplaneta fuliginosa)”, “1 μl/adult.” for “10μg a.i./adult.”, “LD50 value (10” for “a mortality (5”
# [7] = tested on: German cockroach (Blattella germanica); test: Heating fumigant test in (70 cm)^3 glass chamber (Test Example 3); format: in vivo, strain low susceptible to pyrethroids; details: for mortality at 40 mg/m3, 40 mg/m3: Blattella germanica, 48 h
# Method: as §5
# Four polyethylene cups (inside diameter, 10 cm; height, 8 cm) coated with butter at the inside surface were set at the four corners, respectively, of the bottom of a (70 cm)^3 glass chamber (0.34 m^3). Ten male adults per group of German cockroach (Blattella germanica) which belongs to a strain low susceptible to pyrethroids, were liberated in each of two polyethylene cups, and 10 female adults per group of the insect were liberated in each of the remaining two. An electric heater was set at the center of the bottom of the glass chamber, and each of the porous ceramic plates impregnating the present compounds and the control according to Formulation example 8 (13.7 mg/plate: 40 mg/m^3), was placed thereon. The plate was heated to about 200° C. by applying current for 20 minutes. The number of knocked-down insects with the lapse of time was examined to obtain KT50 (50% knocked-down time). Eighty minutes after current application was started, the cups containing the test insects were taken out of the chamber, and the test insects were bred on water and bait. After two days, the number of the dead and alive was examined to obtain a mortality.
# [8] = ceramic plate heating fumigant, 61 mg/plate: 10 mg/m^3, 6.1 m^3 chamber
# [9] = ceramic plate heating fumigant, 13.7 mg/plate: 40 mg/m^3, 0.34 m^3 chamber
# [10] = ceramic plate heating fumigant, 61 mg/plate: 10 mg/m^3, 6.1 m^3 chamber, after three days, read-out: Mortality (%)
# [11] = ceramic plate heating fumigant, 13.7 mg/plate: 40 mg/m^3, 0.34 m^3 chamber, after two days, read-out: Mortality (%)
Compound,selectivity ratio [1],LD50 at 168 h [1] [mg/kg],mortality at 0.01 mg [2] [%],insecticidal activity (in words) (cockroach),Strain low susceptible to pyrethroids KT50 value [3],"mortality at 10 mg/m3, 10 mg/m3 [4] [%]","KT50 value (50% knocked-down time) [4, 8] [min]",Susceptible strain KT50 value [5] [min],LD50 [6] [mg/kg],"mortality at 40 mg/m3, 40 mg/m3 [7] [%]","KT50 value (50% knocked-down time) [7, 9] [min]","mortality at 10 mg/m3, 10 mg/m3 [4, 10] [%]","mortality at 40 mg/m3, 40 mg/m3 [7, 11] [%]","mortality at 0.01 mg ([2]; 10μg a.i./adult, male adults, after two days, read-out: Mortality (%)) [%]"
"Clc1nc(Cl)n(COCCCCBr)c1Cl [(1), 1-(4-bromobutoxymethyl)-2,4,5-trichloroimidazole]",> 50,> 300,80,most superior insecticidal activity,0.70 min,100,38,1.1,6.4,100,28,–,–,–
"ClCCCCOCn1c(Cl)nc(Cl)c1Cl [(2), 1-(4-chlorobutoxymethyl)-2,4,5-trichloroimidazole]",> 50,> 300,100,–,–,80,63,–,6.2,100,41,–,–,–
"BrCCCCOCn1c(Br)nc(Br)c1Br [(3), 1-(4-bromobutoxymethyl)-2,4,5-tribromoimidazole]",–,–,–,–,1.2 min,–,77,1.1,–,–,45,90,100,–
"ClCCCCOCn1c(Br)nc(Br)c1Br [(4), 1-(4-chlorobutoxymethyl)-2,4,5-tribromoimidazole]",–,–,–,–,≈ 0.5 minute,–,–,2.1,–,–,58,–,90,–
Clc1nc(Cl)n(COCCCCCBr)c1Cl [(5)],–,–,–,–,–,–,–,–,–,–,68,–,87.5,–
"Clc1nc(Cl)n(COCCCCCCBr)c1Cl [(6), 1-(6-bromohexyloxymethyl)-2,4,5-trichloroimidazole]",–,–,–,–,–,–,41,–,–,–,–,95,–,–
"BrCCCCCCOCn1c(Br)nc(Br)c1Br [(7), 1-(6-bromohexyloxymethyl)-2,4,5-tribromoimidazole]",–,–,–,–,0.72 min,–,–,2.3,–,–,65,–,92.5,–
CCCCOCn1c(Cl)nc(Cl)c1Cl [(A)],–,–,–,–,> 20 min,–,> 80,> 20,> 10,–,–,8,–,–
CCCCCOCn1c(Cl)nc(Cl)c1Cl [(B)],–,–,–,–,> 20 min,–,> 80,> 20,> 20,–,> 80,0,47.5,40
BrCCOCn1c(Br)nc(Br)c1Br [(C)],16,110,–,–,≥ 20 min,40,> 80,> 20,7,–,–,–,–,–
ClCCOCn1c(Br)nc(Br)c1Br [(D)],18,170,–,–,≈ 20 minute,3,> 80,> 20,9.4,–,–,–,–,–
"CNC(=O)Oc1ccccc1OC(C)C [(E), Propoxur]",5.6,39,–,–,10 min,–,> 80,6.9,7,–,> 80,0,0,–
